Patent US20200120909A1, “COMPOSITIONS AND METHODS FOR THE STUDY AND TREATMENT OF ACUTE KIDNEY INJURY” (THE JOHNS HOPKINS UNIVERSITY, priority 2014, published 2020)

Columns and labels:
T cells = conditions: cited from earlier work; for TNF-a and IFN-g production: after CD3/CD28 activation; for T helper phenotype skewing: pharmacologic activation of Nrf2
Nrf2 [1] = assay: Nrf2 target gene expression in treated human peripheral blood mononuclear cells; format: cell-based
Procedure: (§1) FIG. 11. […] RNA isolated from these cells was analyzed by quantitative real-time PCR for expression of Nrf2 target genes, NQO1, HO-1 and GCLM. […] Furthermore, we treated peripheral blood mononuclear cells (PBMCs) from healthy individuals and treated them with CDDO-Me (Bardoxolone), an Nrf2 activator related to triterpenopid derivative CDDO-Im.

Nrf2 [2] = assay: Ex-vivo Nrf2 activation of purified mouse T cells, real-time PCR of Nrf2 target genes; format: cell-based
Procedure: as §1
Antioxidant Gene Expression Analyses. Total RNA ([…]) from purified T cells was isolated with the RNeasy mini kit (Qiagen, Valencia, Calif.) and reverse transcribed using a high capacity cDNA synthesis kit (Life Technologies). A gene-specific TaqMan primer and probe sets were used to assess transcriptional status of Nrf2, Nqo1, Ho-1, Gclm, and Gclc in Quantstudio 12K flex real-time PCR (Life Technologies). The absolute expression values for each gene were normalized to that of b-actin and the relative gene expression values calculated.

acute kidney injury = conditions: pharmacological activation of Nrf2 regulated antioxidant response; cited from earlier work
[3] = purified T cells from wild type mice, 20 nM and 50 nM, 24 hours

CC(C)(C)c1cc(O)ccc1O [tertbutylhydroquinone, tert-butylhydroquinone]
TNF-a and IFN-g production (T cells): suppress
T helper phenotype skewing (T cells): skew T cells toward a Th2 type phenotype

COC(=O)[C@]12CCC(C)(C)C[C@H]1[C@H]1C(=O)C=C3[C@@]4(C)C=C(C#N)C(=O)C(C)(C)[C@@H]4CC[C@@]3(C)[C@]1(C)CC2 [CDDO-Me, bardoxolone methyl]
gene expression of GCLM (Nrf2 [1]; PBMCs from healthy individuals, p=0.01): significant increase
gene expression of NQO1 (Nrf2 [1]; PBMCs from healthy individuals, p=0.02): significant increase
gene expression of HO-1 (Nrf2 [1]; PBMCs from healthy individuals, p=0.05): significant increase

COc1ccc(O)c(C(C)(C)C)c1 [butylated hydroxyanisole]
TNF-a and IFN-g production (T cells): suppress
T helper phenotype skewing (T cells): skew T cells toward a Th2 type phenotype

CC1(C)CC[C@]2(C(=O)n3ccnc3)CC[C@]3(C)[C@H](C(=O)C=C4[C@@]5(C)C=C(C#N)C(=O)C(C)(C)[C@@H]5CC[C@]43C)[C@@H]2C1 [CDDO-Im]
HO-1 mRNA expression (Nrf2 [2]; [3]): significant increase
NQO1 mRNA expression (Nrf2 [2]; [3]): significant increase
activating Nrf2 regulated antioxidant gene expression (Nrf2 [2]; purified mouse T cells, 20 and 50 μM): significantly effective
activating Nrf2 regulated antioxidant gene expression (Nrf2 [1]; human PBMCs, 20 and 50 μM): significantly effective
protection from acute kidney injury (acute kidney injury): can protect from acute kidney injury
